Laboratory results as given in patent publication US20140213538A1, “LYSOPHOSPHATIDIC ACID RECEPTOR ANTAGONISTS” (InterMune, Inc., priority 2013, published 2014).

Target: T1, LPA/S1P GPCR of interest (Homo sapiens, UniProt Q92633)
T1 construct: host or cells: CHO
Assay: Beta-Arrestin based assay (PathHunter)
Type: cell-based
Experimental: CMV promoter based DNA constructs expressing a fusion of the LPA/S1P GPCR of interest and ProLink™ tag were used to transfect EA Parental™ CHO cells (DiscoverX, Fremont, Calif.) using a FuGENE® transfection kit (Roche). Beta-Arrestin based assays were conducted 24-48 hrs post transfection using PathHunter® assay kits (DiscoverX, Fremont, Calif.). Agonist and antagonist assays were performed in quadruplicate in white 384 well plates. End point luminescence data were plotted and fit to a 4 parameter logistic function to obtain IC50 values. For antagonist assays, an IC80 concentration of agonist (LPA) equal to 0.5 micromolar was used.

T1 sequence (Q92633 whole entry): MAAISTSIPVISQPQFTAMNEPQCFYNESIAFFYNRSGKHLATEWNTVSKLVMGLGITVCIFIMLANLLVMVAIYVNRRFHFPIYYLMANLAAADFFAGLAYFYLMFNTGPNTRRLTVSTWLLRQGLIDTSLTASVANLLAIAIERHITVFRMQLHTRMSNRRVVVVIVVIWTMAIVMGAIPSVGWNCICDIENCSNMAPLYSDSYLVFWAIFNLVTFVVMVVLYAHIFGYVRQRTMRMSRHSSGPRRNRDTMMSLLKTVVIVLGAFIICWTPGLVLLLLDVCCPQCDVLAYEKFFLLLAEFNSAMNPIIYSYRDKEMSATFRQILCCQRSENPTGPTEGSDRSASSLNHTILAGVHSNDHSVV

| Compound | EC50 [nM] |
| --- | --- |
| CC(C)[C@@H](NC(=O)C#Cc1ccc(-c2cnn(C)c2NC(=O)O[C@H](C)c2ccccc2)cc1)C(=O)O [IT403] | > 500 |
| Cc1cc(CC(=O)O)c(F)cc1-c1cc2sc(-c3nnn(C)c3NC(=O)O[C@H](C)c3ccccc3)cc2s1 [IT253] | 50 to 500 |
| C[C@@H](OC(=O)Nc1c(-c2cc3sc(-c4ccc(CC(=O)O)nc4)cc3s2)nnn1C)c1ccccc1 [IT215] | 50 to 500 |
| Cc1nsc(-c2cc3sc(-c4ccc(-c5nnc(CC(=O)O)o5)cc4)cc3s2)c1NC(=O)O[C@H](C)c1ccccc1 [IT207] | > 500 |
| C[C@@H](OC(=O)Nc1c(-c2ccc(C#CC(=O)Nc3cccc(C(=O)O)c3)cc2)cnn1C)c1ccccc1 [IT429] | > 500 |
| Cc1nsc(-c2cc3sc(-c4ccc(C5(C(=O)O)CC5)c(S(C)(=O)=O)c4)cc3s2)c1NC(=O)O[C@H](C)c1ccccc1 [IT458] | > 500 |
| C[C@@H](OC(=O)Nc1c(-c2cc3sc(-c4ccc5occ(C6(C(=O)O)CC6)c5c4)cc3s2)cnn1C)c1ccccc1 [IT334] | > 500 |
| C[C@@H](NC(=O)C#Cc1ccc(-c2cnn(C)c2NC(=O)O[C@H](C)c2ccccc2)cc1)C(=O)O [IT399] | > 500 |
| COc1cc(-c2cc3sc(-c4cnn(C)c4NC(=O)O[C@H](C)c4ccccc4)cc3s2)ccc1C1(C(=O)O)CC1 [IT329] | 50 to 500 |
| C[C@@H](OC(=O)Nc1c(-c2ccc(-c3ccc(C(=O)O)s3)cc2)nnn1C)c1ccccc1 [IT203] | > 500 |
| C[C@@H](OC(=O)Nc1c(-c2cc3sc(-c4ccc5c(CC(=O)O)c[nH]c5c4)cc3s2)nnn1C)c1ccccc1 [IT378] | > 500 |
| C[C@@H](OC(=O)Nc1c(-c2ccc(C#CC(=O)N[C@H](C(=O)O)c3ccccc3)cc2)cnn1C)c1ccccc1 [IT402] | > 500 |
| COc1cc(-c2cc3sc(-c4cnn(C)c4NC(=O)O[C@H](C)c4ccccc4)cc3s2)c(OC)cc1CC(=O)O [IT349] | > 500 |
| C[C@@H](OC(=O)Nc1c(-c2cc3sc(-c4ccc(CC(=O)O)c(C(F)(F)F)c4)cc3s2)cnn1C)c1ccccc1 [IT222] | 50 to 500 |
| C[C@@H](OC(=O)Nc1scnc1C#Cc1cc2sc(C3(C(=O)O)CC3)cc2s1)c1ccccc1 [IT116] | > 500 |
| Cc1nsc(-c2ccc3c(c2)CCCc2cc(CC(=O)O)ccc2-3)c1NC(=O)O[C@H](C)c1ccccc1 [IT225] | 50 to 500 |
| COc1cc(C2(C(=O)O)CC2)c(OC)cc1-c1cc2sc(-c3snc(C)c3NC(=O)O[C@H](C)c3ccccc3)cc2s1 [IT413] | > 500 |
| COc1cc(C2(C(=O)O)CC2)c(OC)cc1-c1cc2sc(-c3cnn(C)c3NC(=O)O[C@H](C)c3ccccc3)cc2s1 [IT414] | > 500 |
| C[C@@H](OC(=O)Nc1c(-c2cc3sc(-c4ccc(-c5nnc(C6(C(=O)O)CC6)o5)cc4)cc3s2)nnn1C)c1ccccc1 [IT218] | > 500 |
| Cc1nsc(-c2cc3sc(-c4ccc(C5(C(=O)O)CC5)s4)cc3s2)c1NC(=O)O[C@H](C)c1ccccc1 [IT274] | 50 to 500 |
| Cc1noc(-c2ccc(-c3ccc(OCC(=O)O)cc3)cc2)c1NC(=O)O[C@H](C)c1ccccc1 [IT277] | 50 to 500 |
| COc1cc(-c2cc3sc(-c4snc(C)c4NC(=O)O[C@H](C)c4ccccc4)cc3s2)ccc1C1(C(=O)O)CC1 [IT331] | 50 to 500 |
| Cc1cc(-c2cc3sc(-c4snc(C)c4NC(=O)O[C@H](C)c4ccccc4)cc3s2)c(F)cc1CC(=O)O [IT241] | > 500 |
| Cc1nsc(-c2ccc(-c3nnc(C4(C(=O)O)CC4)o3)cc2)c1NC(=O)O[C@H](C)c1ccccc1 [IT176] | > 500 |
| C[C@@H](OC(=O)Nc1c(-c2cc3sc(-c4ccc(C5(C(=O)O)CC5)nc4)cc3s2)cnn1C)c1ccccc1 [IT269] | 50 to 500 |
| C[C@@H](OC(=O)Nc1c(-c2ccc(-c3nnc(CC(=O)O)o3)cc2)nnn1C)c1ccccc1 [IT143] | > 500 |
| C[C@@H](OC(=O)Nc1c(-c2cc3sc(-c4ccc(-c5nnc(C6(C(=O)O)CC6)o5)cc4)cc3s2)cnn1C)c1ccccc1 [IT217] | > 500 |
| C[C@@H](OC(=O)Nc1c(-c2cc3sc(-c4ccc(CC(=O)O)cc4OC(F)(F)F)cc3s2)cnn1C)c1ccccc1 [IT383] | > 500 |
